29 compounds from PubChem BioAssay AID1259408 (Genetic Toxicology Data Bank (GENE-TOX), 2018) can be followed below.

Molecules are shown by their SMILES. Activity calls are given as the source filed them. The rule behind the calls is not given here.

This series has as its system GENE-TOX genotoxicity assays, various organisms and cells. The series is described as follows: GENE-TOX mutagenicity studies. As to conditions: for call: Assay Type: In vivo carcinogenicity studies, Assay Code: CCG+.
The mark [1] stands for this setting: Species/Cell Type: Saccharomyces cerevisiae, Assay Type: Mitotic recombination or gene conversion, Assay Code: YEC-, Evaluation Type: Evaluation A (Pre-1980).
Where [2] appears, read: Species/Cell Type: Nonhuman, Evaluation Type: Evaluation A (Pre-1980).
[3] abbreviates: Species/Cell Type: Nonhuman, Assay Type: Sister-chromatid exchange (SCE) in vitro, Assay Code: SC2+, Evaluation Type: Evaluation B (Post-1980).
Setting [4] is: Species/Cell Type: Salmonella typhimurium (one or more of the five standard strains: TA98, TA100, TA1535, TA1537, and TA1538), Assay Type: Histidine reverse gene mutation, Ames assay, Assay Code: SAL+*, Activation: With metabolic activation, Evaluation Type: Evaluation A (Pre-1980).
[5] abbreviates: Species/Cell Type: Drosophila melanogaster, Assay Type: Sex-linked recessive lethal gene mutation, Assay Code: SRLT, Evaluation Type: Evaluation A (Pre-1980).
The mark [6] stands for this setting: Species/Cell Type: Salmonella typhimurium (one or more of the five standard strains: TA98, TA100, TA1535, TA1537, and TA1538), Assay Type: Histidine reverse gene mutation, Ames assay, Assay Code: SAL+, Evaluation Type: Evaluation A (Pre-1980).
The mark [7] stands for this setting: Species/Cell Type: Saccharomyces cerevisiae, Assay Type: Mitotic recombination or gene conversion, Assay Code: YEC+, Evaluation Type: Evaluation A (Pre-1980).
The mark [8] stands for this setting: Species/Cell Type: Salmonella typhimurium (one or more of the five standard strains: TA98, TA100, TA1535, TA1537, and TA1538), Assay Type: Histidine reverse gene mutation, Ames assay, Assay Code: SAL-, Evaluation Type: Evaluation A (Pre-1980).

Take `CC(O)CO` (stereo not given): the mutagenic call is, setting by setting: (Species/Cell Type: Human, Assay Type: Sister-chromatid exchange (SCE) in vitro, Assay Code: SC1-, Evaluation Type: Evaluation B (Post-1980)) “inactive; negative”; (Species/Cell Type: Syrian hamster embryo (SHE) cells, Assay Type: Cell transformation, clonal assay, Assay Code: CTC-, Evaluation Type: Evaluation A (Pre-1980)) “inactive; negative”.
`O=c1[nH]c2c(c(=O)n1C1CCCCC1)CCC2` (tested in a mixture with another compound): under setting [1], the mutagenic call was “inactive; negative”.
For `C[CH2][Hg][S]c1ccc(OS(=O)O)cc1`, the mutagenic call (Species/Cell Type: Saccharomyces cerevisiae, Assay Type: Aneuploidy, chromosome aberrations, Assay Code: YEN+, Evaluation Type: Evaluation A (Pre-1980)) was “active; positive”.
On to `C=C1C/C(=C/C)C(=O)O[C@@H]2CCN3CC=C(COC(=O)[C@]1(C)O)[C@H]23`, for which the mutagenic call (Species/Cell Type: Nonhuman, Assay Type: Sister-chromatid exchange (SCE) in vitro, Assay Code: SC2+D, Dose Response: With dose response, Evaluation Type: Evaluation B (Post-1980)) is “active; positive”.
In the case of `CCOc1ccc(CC(=O)NN)cc1CN(CC)CC`, the mutagenic call (Species/Cell Type: Saccharomyces cerevisiae, Assay Type: Reverse gene mutation, Assay Code: YERT, Evaluation Type: Evaluation A (Pre-1980)) was “no conclusion”.
For `Nc1ccc2cc3ccccc3cc2c1`, the mutagenic call (Species/Cell Type: Escherichia coli polA (W3110 vs P3478), Assay Type: Rec-assay, DNA effects (bacterial DNA repair), Assay Code: RE2+, Evaluation Type: Evaluation A (Pre-1980)) was “active; positive”; the mutagenic call (Species/Cell Type: Escherichia coli polA (W3119 vs P3478), Assay Type: Rec-assay, DNA effects (bacterial DNA repair), Assay Code: RE1T, Evaluation Type: Evaluation A (Pre-1980)) is on record as “no conclusion”; the mutagenic call (Species/Cell Type: Mouse (BALB/c-3T3) cells, Assay Type: Cell transformation, Assay Code: CTB-, Evaluation Type: Evaluation A (Pre-1980)) was “inactive; negative”; the mutagenic call (Species/Cell Type: Mouse embryo (AKR/ME) cells, Assay Type: Cell transformation, Assay Code: CTK+, Evaluation Type: Evaluation A (Pre-1980)) was “active; positive”; the mutagenic call under setting [3] is “active; positive”; the mutagenic call (Species/Cell Type: Nonhuman, Assay Type: Sister-chromatid exchange (SCE) in vivo, Assay Code: SC3+D, Dose Response: With dose response, Evaluation Type: Evaluation B (Post-1980)) is “active; positive”. For the same compound, the mutagenic call is “inactive; negative” (Species/Cell Type: Saccharomyces cerevisiae, Assay Type: Mitotic recombination or gene conversion, Assay Code: YEH-, Evaluation Type: Evaluation A (Pre-1980)); “active; positive” under setting [4]; “active; positive” (Species/Cell Type: Salmonella typhimurium, Assay Type: Forward and reverse gene mutation, host-mediated assay, Assay Code: HMA+, Evaluation Type: Evaluation A (Pre-1980)); “active; positive” (Species/Cell Type: Syrian hamster embryo (SHE) cells, Assay Type: Cell transformation, clonal assay, Assay Code: CTC+, Evaluation Type: Evaluation A (Pre-1980)). The call under setting [2] is “active; positive”.
For `C/C=C1/C[C@@H](C)[C@@](C)(O)C(=O)OC[C@H]2CCN3CC[C@@H](OC1=O)[C@@H]23`, under setting [5], the mutagenic call is “no conclusion”.
Turning to `CC(=O)Oc1cc(OC(C)=O)c2c(=O)c(OC(C)=O)c(-c3ccc(OC(C)=O)c(OC(C)=O)c3)oc2c1`, the mutagenic call under setting [4] was “active; positive”.
As to `Nc1ccc2c(c1)Cc1cc(N)ccc1-2`, the mutagenic call under setting [6] is “active; positive”.
Same read-out and setting: the entry for `O=C(O)/C=C/c1ccc([N+](=O)[O-])o1` is “active; positive”.
Take `C#C[C@@]1(O)CC[C@@H]2[C@H]3CCC4=CC(=O)CC[C@H]4[C@@H]3CC[C@]21CC`: the mutagenic call (Species/Cell Type: Rabbit, Sex: Male, Assay Type: Sperm morphology, Assay Code: SPR-, Evaluation Type: Evaluation A (Pre-1980)) is “inactive; negative”.
For the compound `CCN(CCO)CCNc1ccc(CO)c2sc3cc(Cl)ccc3c(=O)c12`, under “Species/Cell Type: Mouse lymphoma (L5178Y) cells, Assay Type: Forward gene mutation at the thymidine kinase (TK) locus, chromosome aberrations, Assay Code: L51+, Evaluation Type: Evaluation A (Pre-1980)”, the mutagenic call is “active; positive”.
With `CC(=O)Nc1nc(-c2cc([N+](=O)[O-])cs2)cs1`, the mutagenic call under setting [6] is “active; positive”.
Take `CC(C)[N+](=O)[O-]`: the mutagenic call (Species/Cell Type: Mammalian polychromatic erythrocytes, Assay Type: Micronucleus test, chromosome aberrations, Assay Code: MNTT, Evaluation Type: Evaluation A (Pre-1980)) is “no conclusion”. Besides, the call under setting [2] was “active; positive”.
For the compound `c1ccc2c(c1)ccc1cc3ccc4ccccc4c3cc12`, the mutagenic call under setting [4] is “active; positive”.
For the compound `O=C(O)C1CCCCN1` (stereo not given), for the setting “Species/Cell Type: Salmonella typhimurium, Assay Type: Forward and reverse gene mutation, host-mediated assay, Assay Code: HMA-, Evaluation Type: Evaluation A (Pre-1980)”, the mutagenic call is “inactive; negative”.
Consider `CC(=O)N(O)c1ccc(/C=C\c2ccccc2)cc1`, for which the mutagenic call (Species/Cell Type: Human diploid fibroblasts, Assay Type: Unscheduled DNA synthesis (UDS) in vitro, DNA effects, Assay Code: UDH+, Evaluation Type: Evaluation A (Pre-1980)) is “active; positive”. Under setting [2], the call is “active; positive”.
With `CC[C@]1(O)CC2CN(CCc3c([nH]c4ccccc34)[C@@](C(=O)OC)(c3cc4c(cc3OC)N(C=O)[C@H]3[C@@](O)(C(=O)OC)[C@H](OC(C)=O)[C@]5(CC)C=CCN6CC[C@]43[C@@H]65)C2)C1` (stereo not given in full), the mutagenic call reads like this: (Species/Cell Type: Human lymphocytes, Assay Type: Sister-chromatid exchange (SCE) in vitro, Assay Code: SCL+, Evaluation Type: Evaluation A (Pre-1980)) “active; positive”; (Species/Cell Type: Human lymphocytes, Assay Type: Sister-chromatid exchange (SCE) in vitro, Assay Code: SCL+, Evaluation Type: Evaluation B (Post-1980)) “active; positive”; (Species/Cell Type: Human lymphocytes, Assay Type: Sister-chromatid exchange (SCE) in vitro, Assay Code: SCLT, Evaluation Type: Evaluation B (Post-1980)) “no conclusion”; (Species/Cell Type: Human, Assay Type: Sister-chromatid exchange (SCE) in vitro, Assay Code: SC1+, Evaluation Type: Evaluation B (Post-1980)) “active; positive”; (Species/Cell Type: Human, Assay Type: Sister-chromatid exchange (SCE) in vitro, Assay Code: SC1T, Evaluation Type: Evaluation B (Post-1980)) “no conclusion”; (Species/Cell Type: Mammalian polychromatic erythrocytes, Assay Type: Micronucleus test, chromosome aberrations, Assay Code: MNT+, Evaluation Type: Evaluation A (Pre-1980)) “active; positive”. For the same compound, the mutagenic call was “inactive; negative” (Species/Cell Type: Mouse (C3H/10T1/2) cells, Assay Type: Cell transformation, Assay Code: CTH-, Evaluation Type: Evaluation A (Pre-1980)); “active; positive” under setting [3]; “no conclusion” (Species/Cell Type: Nonhuman, Assay Type: Sister-chromatid exchange (SCE) in vivo, Assay Code: SC3T, Evaluation Type: Evaluation B (Post-1980)).
As to `CN(C)N=Nc1c(Br)cc(Br)cc1Br`, the mutagenic call is “active; positive” (Species/Cell Type: Drosophila melanogaster, Assay Type: Sex-linked recessive lethal gene mutation, Assay Code: SRL+, Evaluation Type: Evaluation A (Pre-1980)) and “active; positive” under setting [7].
Take `CC(=O)Nc1ccc(NC(C)=O)c2c1C(=O)c1ccccc1C2=O`: under setting [4], the mutagenic call was “active; positive”.
Take `COc1cc2c(c3oc(=O)c4c(c13)CCC4=O)[C@@H]1C(Cl)C(O)O[C@@H]1O2` (stereo not given in full): the mutagenic call (Species/Cell Type: Salmonella typhimurium (one or more of the five standard strains: TA98, TA100, TA1535, TA1537, and TA1538), Assay Type: Histidine reverse gene mutation, Ames assay, Assay Code: SALT, Evaluation Type: Evaluation A (Pre-1980)) is given as “no conclusion”.
On to `CCOc1ccc2c(c1)C(C)=CC(C)(C)N2`, for which the mutagenic call reads like this: (Species/Cell Type: Drosophila melanogaster, Assay Type: Sex-linked recessive lethal gene mutation, Assay Code: SRL-, Evaluation Type: Evaluation A (Pre-1980)) “inactive; negative”; under setting [8], “inactive; negative”.
On to `CN(C)C(c1ccccc1)(c1ccccc1)N(C)C`, for which the mutagenic call under setting [8] is “inactive; negative”.
Turning to `O=[N+]([O-])c1cnc2ccccc2c1`, the mutagenic call (Species/Cell Type: Neurospora crassa, Assay Type: Aneuploidy, chromosome aberrations, Assay Code: NEN-, Evaluation Type: Evaluation A (Pre-1980)) is “inactive; negative”.
As to `O=S(=O)(O)c1cc(S(=O)(=O)O)c2c(N=Nc3ccc(S(=O)(=O)O)c4ccccc34)c(O)ccc2c1`, the mutagenic call (Species/Cell Type: Bacillus subtilis (H17 vs M45), Assay Type: Rec-assay, spot test, DNA effects (bacterial DNA repair), Assay Code: REWT, Evaluation Type: Evaluation A (Pre-1980)) is on record as “no conclusion”; the mutagenic call (Species/Cell Type: Bacillus subtilis (H17 vs M45T), Assay Type: Rec-assay, spot test, DNA effects (bacterial DNA repair), Assay Code: REXT, Evaluation Type: Evaluation A (Pre-1980)) is recorded as “no conclusion”; the mutagenic call under setting [1] is “inactive; negative”.
Take `CC(C)C[C@H](NC(=O)CNC(=O)[C@H](Cc1ccc(O)cc1)NC(=O)[C@H](CO)NC(=O)[C@H](Cc1c[nH]c2ccccc12)NC(=O)[C@H](Cc1cnc[nH]1)NC(=O)[C@@H]1CCC(=O)N1)C(=O)N[C@@H](CCCN=C(N)N)C(=O)N1CCC[C@H]1C(=O)NCC(N)=O`: the mutagenic call (Species/Cell Type: Human, Sex: Male, Assay Type: Sperm morphology, Assay Code: SPHT, Evaluation Type: Evaluation A (Pre-1980)) was “no conclusion”.
For the compound `CN(C)c1ccc(/C=C/c2ccccc2)cc1`, the mutagenic call under setting [5] was “no conclusion”.
Regarding `NCCCC[C@H](N)C(=O)O`, the mutagenic call (Species/Cell Type: Human, Sex: Male, Assay Type: Sperm morphology, Assay Code: SPH-, Evaluation Type: Evaluation A (Pre-1980)) was “inactive; negative”.
As to `CN(N=O)C(=O)Nc1nc2ccccc2s1`, the mutagenic call reads like this: (Species/Cell Type: Neurospora crassa, Assay Type: Forward gene mutation, Assay Code: NEF+, Evaluation Type: Evaluation A (Pre-1980)) “active; positive”; under setting [7], “active; positive”.
